Test results from patent publication US10294234B2, “HIV inhibitor compounds” (priority 2017, dated 2019).
pEC50, pKi: −log10 of the molar value.

Columns and labels:
[1] = system: HIV-1 (IIIB) in MT-4 cells; experiment: MT-4 HIV assay; assay type: cell-based; conditions: Human immunodeficiency virus 1, MT4, 120 h; HIV-1 (IIIB), MT-4 cells, 5 days, Cell Titer Glo; read-out: EC50
Method in brief: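 Antiviral activity was read by Cell Titer Glo after a 5-day, 37 °C culture of MT-4 cells pre-infected with a 1:250 dilution of HIV-1 (IIIB). Compounds were tested as threefold dilution series in complete RPMI. Controls were no drug, mock infection and 5 uM AZT.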

[2] = 1 uM compound, NADPH
Method in brief: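 Depletion measured by LC/MS/MS at 2, 12, 25, 45 and 65 minutes after 1 uM compound was added to liver microsomes (0.5 mg/mL; dog, rat, human) with NADPH-regenerating cofactor, in duplicate. In vitro t1/2 converted to Clint.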

[3] = 3H Human Predicted Clearance Assay (tritiated analogs); assay type: in vitro ADME; set-up: unit not given here; conditions: tritiated analogs, human liver microsomes
Protocol: 3H Human Predicted Clearance Assay:
For certain compounds, tritiated analogs (H^3) were prepared to further determined their human predicted clearance with increased resolution. Those studies were performed as described above using the tritiated analogs. Data from those compounds is found in Table 2 below and reported in FIG. 1 (note ATV and DRV were not tritiated).

[4] = in vivo; conditions: rat, in vivo
Method in brief: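 Male SD rats (n=3/group, 0.27–0.32 kg), fasted overnight, given 0.5 or 1.0 mg/kg by 30-min IV infusion, or by oral gavage. Serial plasma samples (EDTA-K2) over 24 h measured by LC/MS/MS; non-compartmental PK analysis.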

[5] = system: HIV-1 (IIIB) in MT-4 cells; experiment: MT-4 HIV High Resolution Antiviral Assay; assay type: cell-based
Protocol: Compounds were tested in a high-throughput 384-well assay format for their ability to inhibit the replication of HIV-1 (IIIB) in MT-4 cells. Compounds were serially diluted (1:3) in DMSO on 384-well polypropylene plates and further diluted 200-fold into complete RPMI media (10% FBS, 1% P/S) using the Biotek Micro Flow and Agilent ECHO acoustic dispenser. Each plate contained up to 8 test compounds, with negative (No Drug Control) and 5 uM AZT positive controls. MT-4 cells were pre-infected with 10 uL of either RPMI (mock-infected) or a fresh 1:250 dilution of an HIV-1 (IIIB) concentrated virus stock. Infected and uninfected MT-4 cells were further diluted in complete RPMI media and added to each plate using a Micro Flow dispenser. After 5 days incubation in a humidified and temperature controlled incubator (37° C.), Cell Titer Glo (Promega) was added to the assay plates to quantify the amount of luciferase. EC50 and CC50 values were defined as the compound concentration that causes a 50% decrease in luminescence signal, and were calculated using a sigmoidal dose-response model to generate curve fits.
MT-4 HIV High Resolution Antiviral Assay
Assay protocol is identical to that described for the MT-4 antiviral assay with the following changes: Each drug is run in 2 series of quadruplicates with different starting concentrations for each series and 19 1.5 fold dilutions performed across the plate. […] Data is analyzed and Hill coefficients determined in Graph Pad Prism (San Diego, Calif.). EC95s were determined by the formula EC95=(19)^I/hill coefficient×EC50. HD values were determined for certain compounds and reported in Table 5 below as an illustrative example.

[6] = target: recombinant HIV protease (Human immunodeficiency virus type 1 group M subtype B, UniProt P04585); experiment: biochemical
Protocol: Inhibitor potency was measured using an enzymatic assay with a fluorogenic readout. […] After a 20-minute pre-incubation, the enzymatic reaction was initiated by the addition of the fluorogenic substrate (2-aminobenzoyl)Thr-Ile-Nle-(p-nitro)Phe-Gln-Arg (Bachem) to a final concentration of 40 μM. The total volume of the assay solution was 100 µL. The reaction was measured over 20 minutes on a Tecan Infinite M1000 plate reader using an excitation wavelength of 320 nm and a detection wavelength of 420 nm. The slopes of the progress curves were the measure of reaction rates.

For `COC(=O)N[C@H](C(=O)N[C@@H](Cc1ccc(C#Cc2ccc(N3CC4CCC(C3)N4C3COC3)nc2)cc1)[C@@H](O)CN(Cc1c(F)cc(-c2ccn(C(F)F)n2)cc1F)NC(=O)[C@@H](NC(=O)OC)C(C)(C)C(F)(F)F)C(C)(C)C(F)(F)F` [Example 58, Methyl ((5S,8S,9S,14S)-11-(4-(1-(difluoromethyl)-1H-pyrazol-3-yl)-2,6-difluorobenzyl)-16,16,16-trifluoro-9-hydroxy-15,15-dimethyl-8-(4-((6-(8-(oxetan-3-yl)-3,8-diazabicyclo[3.2.1]octan-3-yl)pyridin-3-yl)ethynyl)benzyl)-3,6,13-trioxo-5-(1,1,1-trifluoro-2-methylpropan-2-yl)-2-oxa-4,7,11,12-tetraazahexadecan-14-yl)carbamate], the pEC50 [1] was 8.32, the “Human Pred Cl.” value ([2]; human liver microsomes 0.5 mg/mL) was under 0.11 L/H/kg and the “Rat. Pred. Cl.” value ([2]; rat liver microsomes 0.5 mg/mL) was 0.24 L/H/kg. For the same compound, the “3H Human Predicted Cl.” value [3] was 0.05, the Vd ([4]; male, SD, iv) was 6.68 L/kg and the “RAT PO F” value ([4]; male, SD, po, 2.5 mg/kg) was 37.2%. For the same compound, the “RAT IV CL” value ([4]; iv) was 8 mL/min/kg, the “RAT IV T1/2” value ([4]; iv) was 12.8 h and the pEC50 ([5]; Human immunodeficiency virus 1, IIIB, MT4, high resolution assay, 40 data points, MT-4 cells, read-out: EC50) was 8.17. It also gave an EC95 ([5]; calculated from Hill coefficient and EC50) of 11.4 nM, a Hill-coefficient ([5]; high resolution assay, Graph Pad Prism) of 5.8 and a pKi [6] of 10.22.
